Patent US9604989B2, “Imidazopyridazines as Akt kinase inhibitors” (Bayer Intellectual Property GmbH, priority 2011, dated 2017)

Legend:
[1] = biological target: His-tagged human recombinant kinase full-length Akt2 (Homo sapiens (Human), UniProt P31751); assay: Akt2 kinase assay (Akt2 TR-FRET assay); format: biochemical; conditions: 10 μM ATP, 60 min at 22° C., read-out: Akt2 median IC50
Excerpt: Akt2 inhibitory activity of compounds of the present invention was quantified employing the Akt2 TR-FRET assay as described in the following paragraphs.
His-tagged human recombinant kinase full-length Akt2 expressed in insect cells and activated by PDK1 was purchased form Invitrogen (part number PV 3975). As substrate for the kinase reaction the biotinylated peptide biotin-Ahx-[sequence] (C-terminus in amide form) was used which can be purchased e.g. from the company Biosynthan GmbH (Berlin-Buch, Germany). For the assay 50 nl of a 100 fold concentrated solution of the test compound in DMSO was pipetted into a black low volume 384 well microtiter plate (Greiner Bio-One, Frickenhausen, Germany), 2 μl of a solution of Akt2 in assay buffer [50 mM TRIS/HCl pH 7.5, 5 mM MgCl2, 1 mM dithiothreitol, 0.02% (v/v) Triton X-100 (Sigma)] were added and the mixture was incubated for 15 min at 22° C. to allow pre-binding of the test compounds to the enzyme before the start of the kinase reaction. Then the kinase reaction was started by the addition of 3 μl of a solution of adenosine-tri-phosphate (ATP, 16.7 μM=>final conc. in the 5 μl assay volume is 10 μM) and substrate (1.67 μM=>final conc. in the 5 μl assay volume is 1 μM) in assay buffer and the resulting mixture was incubated for a reaction time of 60 min at 22° C. The concentration of Akt2 in the assay was adjusted depending of the activity of the enzyme lot and was chosen appropriate to have the assay in the linear range, typical enzyme concentrations were in the range of about 0.2 ng/μl (final conc. in the 5 μl assay volume). The reaction was stopped by the addition of 5 μl of a solution of HTRF detection reagents (200 nM streptavidine-XL665 [Cisbio] and 1.5 nM anti-phosho-Serine antibody [Millipore, cat. #35-001] and 0.75 nM LANCE Eu-W 1024 labeled anti-mouse IgG antibody [Perkin Elmer]) in an aqueous EDTA-solution (100 mM EDTA, 0.1% (w/v) bovine serum albumin in 50 mM HEPES/NaOH pH 7.5). The resulting mixture was incubated 1 h at 22° C. to allow the binding of the biotinylated phosphorylated peptide to the streptavidine-XL665 and the antibodies. Subsequently the amount of phosphorylated substrate was evaluated by measurement of the resonance energy transfer from the anti-mouse-IgG-Eu-Chelate to the streptavidine-XL665. Therefore, the fluorescence emissions at 620 nm and 665 nm after excitation at 350 nm was measured in a TR-FRET reader, e.g. a Rubystar (BMG Labtechnologies, Offenburg, Germany) or a Viewlux (Perkin-Elmer). The ratio of the emissions at 665 nm and at 622 nm was taken as the measure for the amount of phosphorylated substrate.

[2] = biological target: His-tagged human recombinant kinase full-length Akt1 (Homo sapiens (Human), UniProt P31749); assay: Akt1 kinase assay (Akt1 TR-FRET assay); format: biochemical; conditions: 10 μM ATP, 60 min at 22° C., read-out: Akt1 median IC50
Sequence of His-tagged human recombinant kinase full-length Akt1 (P31749 whole entry): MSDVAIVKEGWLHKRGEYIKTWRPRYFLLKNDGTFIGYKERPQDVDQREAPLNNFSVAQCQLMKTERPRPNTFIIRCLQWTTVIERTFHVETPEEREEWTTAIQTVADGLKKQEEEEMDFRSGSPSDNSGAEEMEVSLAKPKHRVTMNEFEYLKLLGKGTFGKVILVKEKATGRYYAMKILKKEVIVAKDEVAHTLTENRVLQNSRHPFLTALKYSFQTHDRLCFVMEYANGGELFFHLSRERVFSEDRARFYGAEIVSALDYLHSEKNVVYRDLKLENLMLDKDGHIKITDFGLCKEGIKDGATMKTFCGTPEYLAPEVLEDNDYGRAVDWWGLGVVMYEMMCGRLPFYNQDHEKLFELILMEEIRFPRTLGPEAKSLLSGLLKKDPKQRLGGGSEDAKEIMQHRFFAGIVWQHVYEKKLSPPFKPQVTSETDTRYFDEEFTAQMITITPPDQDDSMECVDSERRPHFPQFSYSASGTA

[3] = system: phospho-AKT at S473; assay: Cellular p-AKT1/2/3-S473 assay in KPL-4 cells; format: cell-based; conditions: Homo sapiens, KPL4; KPL-4 breast tumour cell line, compound treatment 2 hours; read-out: pAKT-S473 median IC50
Description: The molecular mechanism of action was investigated in a set of experiments to assess the inhibition of the PI3K-AKT-mTOR pathway in responsive cell lines such as KPL-4 breast tumour cell line (PIK3CA^H1047R, HER2^O/E and hormone independent). The phospho-substrates of PI3K-AKT-mTOR axis were used as the read-outs to reflect pathway inhibition. Cells were seeded at 60-80% confluency per well in 96-well cell culture plates. After overnight incubation at 37° C. 5% CO2, cells were treated with compounds and vehicle at 37° C. for 2 hours. […] All measurements where at least done in duplicates and confirmed by independent repetition.
Alternatively pAKT-S473 was measured using the “Akt Duplex” of the MULTI-SPOT® Assay System (Fa. Meso Scale Discovery, Cat#N41100B-1) following manufacturers instructions. Each assay used 20 μg of protein extract and measured total AKT and p-AKT content simultaneously in one well. All measurements where at least done in duplicates and confirmed by independent repetition. Values for P-AKT are expressed as percentage of P-AKT level compared to total-AKT content of the extracts.

[4] = system: MCF-7 breast tumour cell line; assay: Tumor cell proliferation assay (CellTiter-Glo), MCF-7; format: cell-based; conditions: Homo sapiens, MCF7, 72 h drug exposure, read-out: MCF-7 median IC50
[5] = system: KPL-4 breast cancer cell line; assay: Tumor cell proliferation assay (CellTiter-Glo), KPL-4; format: cell-based; conditions: Homo sapiens, KPL4, 72 h drug exposure, read-out: KLP-4 median IC50
[6] = system: p-4E-BP1 at T70; assay: Cellular p-4E-BP1-T70 assay in KPL-4 cells; format: cell-based; conditions: Homo sapiens, KPL4; KPL-4 breast tumour cell line, compound treatment 2 hours; read-out: P4EBP1-T70 median IC50

Sequence of His-tagged human recombinant kinase full-length Akt2 (P31751 whole entry): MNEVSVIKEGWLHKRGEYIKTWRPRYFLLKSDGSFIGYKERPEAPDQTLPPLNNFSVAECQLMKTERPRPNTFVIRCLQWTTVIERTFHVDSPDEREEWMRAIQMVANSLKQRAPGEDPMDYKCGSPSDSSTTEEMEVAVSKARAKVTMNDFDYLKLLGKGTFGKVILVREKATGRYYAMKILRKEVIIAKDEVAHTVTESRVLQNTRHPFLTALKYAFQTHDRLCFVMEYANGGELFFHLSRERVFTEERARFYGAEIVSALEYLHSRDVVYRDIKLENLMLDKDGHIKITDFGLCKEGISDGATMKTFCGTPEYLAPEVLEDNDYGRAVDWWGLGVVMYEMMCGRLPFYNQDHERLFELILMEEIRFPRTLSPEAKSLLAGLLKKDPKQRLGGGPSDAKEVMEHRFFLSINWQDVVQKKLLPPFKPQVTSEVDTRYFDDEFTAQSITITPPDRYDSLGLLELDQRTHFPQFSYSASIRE

Row | Structure (SMILES) | IC50 [1] | IC50 [2] | IC50 [3] | IC50 [4] | IC50 [5] | IC50 [6]
1 | Cc1ccc2nc(-c3ccc(C4(N)CCC4)cc3)c(-c3ccccc3)n2n1 [Example 1, 1-[4-(6-Methyl-3-phenylimidazo[1,2-b]pyridazin-2-yl)phenyl]cyclobutanamine] | 380 nM | 170 nM | 160 nM | 600 nM | 1800 nM | –
2 | CCc1ccc2nc(-c3ccc(C4(N)CCC4)cc3)c(-c3ccccc3)n2n1 [Example 2, 1-[4-(6-Ethyl-3-phenylimidazo[1,2-b]pyridazin-2-yl)phenyl]cyclobutanamine] | 97 nM | 65 nM | 310 nM | 1700 nM | 1700 nM | 2100 nM
3 | CCOC(=O)c1ccc2nc(-c3ccc(C4(N)CCC4)cc3)c(-c3ccccc3)n2n1 [Example 4, Ethyl 2-[4-(1-aminocyclobutyl)phenyl]-3-phenylimidazo[1,2-b]pyridazine-6-carboxylate] | 190 nM | 85 nM | 610 nM | 1800 nM | 2400 nM | 2400 nM
4 | COc1cc(Br)nn2c(-c3ccccc3)c(-c3ccc(C4(N)CCC4)cc3)nc12 [Example 7, 1-[4-(6-Bromo-8-methyloxy-3-phenylimidazo[1,2-b]pyridazin-2-yl)phenyl]-cyclobutanamine] | 9.7 nM | 6.9 nM | 27 nM | 410 nM | 250 nM | 1300 nM
5 | COc1cc(OC)c2nc(-c3ccc(C4(N)CCC4)cc3)c(-c3ccccc3)n2n1 [Example 9, 1-[4-(6,8-Dimethyloxy-3-phenylimidazo[1,2-b]pyridazin-2-yl)phenyl]-cyclobutanamine] | 18 nM | 3.9 nM | 36 nM | 340 nM | 770 nM | 690 nM
6 | COc1cc(-c2cccnc2)c2nc(-c3ccc(C4(N)CCC4)cc3)c(-c3ccccc3)n2n1 [Example 14, 1-{4-[6-Methoxy-3-phenyl-8-(pyridin-3-yl)imidazo [1,2-b]pyridazin-2-yl]phenyl}cyclobutanamine] | 65 nM | 9.8 nM | 220 nM | 1800 nM | 1900 nM | 320 nM
7 | CCc1cc(CC)c2nc(-c3ccc(C4(N)CCC4)cc3)c(-c3ccccc3)n2n1 [Example 16, 1-[4-(6,8-Diethyl-3-phenylimidazo[1,2-b]pyridazin-2-yl)phenyl]cyclobutanamine] | 160 nM | 160 nM | 520 nM | 1800 nM | 2000 nM | 2500 nM
8 | C=Cc1cc(OC)c2nc(-c3ccc(C4(N)CCC4)cc3)c(-c3ccccc3)n2n1 [Example 18, 1-[4-(8-Methoxy-3-phenyl-6-vinylimidazo[1,2-b]pyridazin-2-yl)phenyl]-cyclobutanamine] | 53 nM | 86 nM | 180 nM | 1100 nM | 1600 nM | 710 nM
9 | NC1(c2ccc(-c3nc4c(-c5cc[nH]n5)cc(Cl)nn4c3-c3ccccc3)cc2)CCC1 [Example 19, 1-{4-[6-Chloro-3-phenyl-8-(1H-pyrazol-3-yl)imidazo[1,2-b]pyridazin-2-yl]phenyl} cyclobutanamine] | 42 nM | 15 nM | 390 nM | 1800 nM | 2000 nM | 5100 nM
10 | C=Cc1cc(-c2cc[nH]n2)c2nc(-c3ccc(C4(N)CCC4)cc3)c(-c3ccccc3)n2n1 [Example 20, 1-{4-[3-Phenyl-8-(1H-pyrazol-3-yl)-6-vinylimidazo [1,2-b]pyridazin-2-yl]phenyl}cyclobutanamine] | 170 nM | 120 nM | 520 nM | 1800 nM | 2600 nM | 1500 nM
11 | NC1(c2ccc(-c3nc4cccnn4c3-c3ccccc3)cc2)CCC1 [Example 25, 1-[4-(3-Phenylimidazo[1,2-b]pyridazin-2-yl)phenyl]cyclobutanamine] | 160 nM | 190 nM | 90 nM | 1900 nM | 2000 nM | 550 nM
12 | NC1(c2ccc(-c3nc4c(-c5cc[nH]n5)ccnn4c3-c3ccccc3)cc2)CCC1 [Example 27, 1-{4-[3-Phenyl-8-(1H-pyrazol-3-yl)imidazo[1,2-b]pyridazin-2-yl]phenyl}cyclobutanamine] | 29 nM | 15 nM | 36 nM | 1800 nM | 1800 nM | 480 nM
13 | NC1(c2ccc(-c3nc4c(OCc5ccccc5)cc(Cl)nn4c3-c3ccccc3)cc2)CCC1 [Example 29, 1-{4-[8-(Benzyloxy)-6-chloro-3-phenylimidazo[1,2-b]pyridazin-2-yl]phenyl}cyclobutanamine] | 78 nM | 56 nM | 210 nM | 1700 nM | 2000 nM | 1300 nM

The remaining compounds from weak to strong by IC50 [1], led by results:

Row | IC50 [1] | IC50 [2] | IC50 [3] | IC50 [4] | IC50 [5] | IC50 [6] | Structure (SMILES)
14 | 400 nM | 450 nM | > 10000 nM | > 10000 nM | > 10000 nM | > 10000 nM | NC1(c2ccc(-c3nc4ccc(C(=O)O)nn4c3-c3ccccc3)cc2)CCC1 [Example 8, 2-[4-(1-Aminocyclobutyl)phenyl]-3-phenylimidazo[1,2-b]pyridazine-6-carboxylic acid]
15 | 190 nM | 1200 nM | 1400 nM | 2100 nM | 2200 nM | 2900 nM | Cn1nccc1-c1cc(Cl)nn2c(-c3ccccc3)c(-c3ccc(C4(N)CCC4)cc3)nc12 [Example 23, 1-{4-[6-Chloro-8-(1-methyl-1H-pyrazol-5-yl)-3-phenylimidazo[1,2-b]pyridazin-2-yl]phenyl} cyclobutanamine]
16 | 130 nM | 73 nM | 420 nM | 1800 nM | 2000 nM | 1700 nM | CCc1cc(-c2cc[nH]n2)c2nc(-c3ccc(C4(N)CCC4)cc3)c(-c3ccccc3)n2n1 [Example 21, 1-{4-[6-Ethyl-3-phenyl-8-(1H-pyrazol-3-yl)imidazo [1,2-b]pyridazin-2-yl]phenyl}cyclobutanamine]
17 | 110 nM | 130 nM | 14 nM | 470 nM | 630 nM | 160 nM | COc1ccnn2c(-c3ccccc3)c(-c3ccc(C4(N)CCC4)cc3)nc12 [Example 11, 1-[4-(8-Methoxy-3-phenylimidazo[1,2-b]pyridazin-2-yl)phenyl]cyclobutanamine]
18 | 80 nM | 4.2 nM | 210 nM | 1200 nM | 1100 nM | 1300 nM | COc1ccc2nc(-c3ccc(C4(N)CCC4)cc3)c(-c3ccccc3)n2n1 [Example 6, 1-[4-(6-Methyloxy-3-phenylimidazo[1,2-b]pyridazin-2-yl)phenyl]cyclobutanamine]
19 | 4.1 nM | 2.6 nM | 2.4 nM | 39 nM | 49 nM | 28 nM | COc1cc(C(N)=O)nn2c(-c3ccccc3)c(-c3ccc(C4(N)CCC4)cc3)nc12 [Example 10, 2-[4-(1-Aminocyclobutyl)phenyl]-8-methoxy-3-phenylimidazo[1,2-b]-pyridazine-6-carboxamide]
